Source: ChEMBL document CHEMBL1201862, “PubChem BioAssay data set” (2004)
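How tested: cells in 96-well plates exposed to compound for 48 hours at five concentrations. GI50 = concentration required for 50% inhibition of growth.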 Active and inactive are the calls of the source. Rule as the data show it: active = GI50 up to about 1.1 µM and inactive = higher.

Tests used:
Assay in all cases: NCI-60 cell line screen, 48 h
XF498 = tested on: XF498
LXFL 529 = tested on: LXFL 529
M19-MEL = tested on: M19-MEL
RXF 631 = tested on: RXF 631
KM-20L2 = tested on: KM-20L2
HOP-18 = tested on: HOP-18
Hs-578T = tested on: Hs-578T
BT-549 = tested on: BT-549
T47D = tested on: T47D

Measured: GI50

c1ccc2c(c1)Cc1c(Cc3csc4ccccc34)ccc3cccc-2c13
inactive: XF498 > 100 µM | LXFL 529 > 100 µM | M19-MEL > 100 µM | RXF 631 > 100 µM | KM-20L2 > 100 µM

O=CN1CCN(C=S)CC1
inactive: XF498 > 100 µM | LXFL 529 > 100 µM | M19-MEL > 100 µM | RXF 631 > 100 µM | KM-20L2 > 100 µM

Cc1ccccc1C1CC(c2ccccc2)=NO1 (stereo not drawn)
inactive: LXFL 529 > 100 µM | RXF 631 > 100 µM | KM-20L2 > 100 µM | HOP-18 > 100 µM

CN(CCCN1C(=O)c2cccc3cc([N+](=O)[O-])cc(c23)C1=O)CCN(C)CCCN1C(=O)c2cccc3cc([N+](=O)[O-])cc(c23)C1=O
inactive: XF498 > 39.3 µM | LXFL 529 2.45 µM | M19-MEL 18.2 µM | RXF 631 > 39.3 µM | KM-20L2 > 39.3 µM | HOP-18 > 39.3 µM

COC(=O)C1C(C(=O)OC)C2(OC)c3ccccc3-c3ccccc3C12 (stereo not drawn)
inactive: LXFL 529 44.1 µM | M19-MEL 33 µM | RXF 631 54.8 µM | KM-20L2 26.2 µM | HOP-18 55.1 µM

COc1cc(-c2n[nH]cc2CCCC(=O)Nc2ccccc2[N+](=O)[O-])ccc1O
inactive: XF498 > 100 µM | LXFL 529 > 100 µM | HOP-18 > 100 µM

Cc1cccc(C(C)(C)C)c1NC(=O)CCc1n[nH]c(=S)o1
inactive: LXFL 529 > 100 µM | M19-MEL > 100 µM | KM-20L2 > 100 µM | HOP-18 > 100 µM

O=C(Cc1nc2ccccc2s1)C(=O)Nc1ccc(Cl)cc1
inactive: LXFL 529 > 100 µM | M19-MEL > 100 µM | KM-20L2 > 100 µM | HOP-18 > 100 µM

COc1ccc(/C=C/c2cc(OC)c(OC(C)=O)c(OC)c2)cc1
inactive: XF498 34.5 µM | LXFL 529 27.5 µM | M19-MEL 30.1 µM | RXF 631 36.1 µM | KM-20L2 35.1 µM

CCCc1n[nH]c(CCC(=O)N(Cc2ccccc2)Cc2ccccc2)c1CC
inactive: XF498 > 100 µM | LXFL 529 > 100 µM | M19-MEL > 100 µM | RXF 631 > 100 µM | KM-20L2 > 100 µM | HOP-18 > 100 µM

COC(=O)[C@@H]1C(=O)O[C@@H](c2cc(OC)c(OC)cc2OC)[C@@H]1C(=O)OC.COC(=O)[C@H]1C(=O)O[C@@H](c2cc(OC)c(OC)cc2OC)[C@@H]1C(=O)OC
inactive: XF498 > 100 µM | LXFL 529 > 100 µM | M19-MEL > 100 µM | RXF 631 > 100 µM | KM-20L2 > 100 µM

CCOC(=O)C12CCCC1(O)N(NC(=O)OC(C)(C)C)C(C)=C2C(=O)OC (stereo not drawn)
inactive: XF498 > 100 µM | LXFL 529 > 100 µM | M19-MEL > 100 µM | RXF 631 > 100 µM | KM-20L2 > 100 µM | HOP-18 > 100 µM

CS(=O)(=O)Oc1cccc(/C=N/N=C(\N)NO)c1
inactive: XF498 10.7 µM | LXFL 529 19.2 µM | M19-MEL 42.5 µM | HOP-18 69.8 µM

CN(C)CCn1c2c3ccccc3ccc2c2oc(=O)c3ccccc3c21
inactive: XF498 15.3 µM | LXFL 529 4.98 µM | M19-MEL 5.46 µM | RXF 631 4.53 µM | KM-20L2 7.08 µM | HOP-18 16.1 µM

Cc1ccc2c(c1)SC(c1cc3c(cc1Br)OCO3)S2 (stereo not drawn)
inactive: XF498 > 100 µM | LXFL 529 > 31.6 µM | M19-MEL 28.6 µM | RXF 631 > 10 µM | KM-20L2 26.1 µM | HOP-18 > 31.6 µM

CC1C=C(OC(=O)c2ccccc2)C(=O)C(n2cc(F)c(=O)[nH]c2=O)O1 (stereo not drawn)
inactive: XF498 48.1 µM | LXFL 529 56 µM | M19-MEL 93.3 µM | KM-20L2 94.6 µM | HOP-18 > 100 µM

NC(CCCCNCc1ccccc1O)C(=O)O (stereo not drawn)
inactive: LXFL 529 > 100 µM | M19-MEL > 100 µM | KM-20L2 > 100 µM | HOP-18 > 100 µM

CCc1cccc(C)c1NC(=O)CCc1n[nH]c(=S)o1
inactive: LXFL 529 > 100 µM | M19-MEL > 100 µM | KM-20L2 > 100 µM | HOP-18 > 100 µM

COc1ccc(NC(=O)CC2S/C(=N\c3ccccc3C)NC2=O)c([N+](=O)[O-])c1 (stereo not drawn)
inactive: XF498 > 100 µM | LXFL 529 > 100 µM | M19-MEL > 100 µM | KM-20L2 > 100 µM

O=C1CCC(=O)N2CCCCN12
inactive: LXFL 529 > 100 µM | M19-MEL > 100 µM | RXF 631 > 100 µM | KM-20L2 > 100 µM | HOP-18 > 100 µM

Cc1cccc(C)c1NC(=O)CCc1nnc2s/c(=C\c3ccc(Cl)cc3)c(=O)n12
inactive: XF498 52.8 µM | LXFL 529 75.7 µM | M19-MEL > 100 µM | KM-20L2 > 100 µM | HOP-18 > 100 µM

CCC1C(C(=O)Nc2ccccc2C)=C(C)NC(C)=C1c1ccccc1C (stereo not drawn)
inactive: XF498 > 100 µM | LXFL 529 > 100 µM | M19-MEL > 80.4 µM | KM-20L2 > 92.3 µM | HOP-18 > 60.8 µM

C/C(CC(=O)Nc1ccc([N+](=O)[O-])cc1)=N\NC(N)=O
inactive: XF498 > 100 µM | LXFL 529 > 80.2 µM | M19-MEL > 100 µM | KM-20L2 > 64.9 µM | HOP-18 > 100 µM

O=c1c2ccccc2[nH]c(=S)n1-c1ccc(Br)cc1
inactive: XF498 > 100 µM | LXFL 529 37.3 µM | M19-MEL 74.8 µM | KM-20L2 63.4 µM | HOP-18 > 100 µM

CCOC(=O)Cc1csc(Nc2ccccc2[N+](=O)[O-])n1
inactive: LXFL 529 > 100 µM | M19-MEL > 100 µM | KM-20L2 > 100 µM | HOP-18 > 100 µM

N#CCCN(c1ccc(/C=C2\N=C(c3ccc(Cl)cc3)OC2=O)cc1)S(=O)(=O)c1ccccc1
inactive: XF498 > 100 µM | LXFL 529 > 100 µM | M19-MEL > 100 µM | RXF 631 > 100 µM | KM-20L2 > 100 µM

COc1ccc2c[n+](C)c3c4cc(OC)c(OC)cc4ccc3c2c1
inactive: Hs-578T 2.6 µM | BT-549 2.85 µM | XF498 9.84 µM | T47D 2.73 µM | LXFL 529 1.21 µM | M19-MEL 12.4 µM | RXF 631 15.5 µM | KM-20L2 3.52 µM | HOP-18 28.6 µM

Cn1c(=O)oc2cc(C3CCC(=O)N3Cc3csc(-c4ccccc4)n3)ccc21 (stereo not drawn)
inactive: XF498 67.1 µM | LXFL 529 96.6 µM | M19-MEL > 100 µM | KM-20L2 > 100 µM | HOP-18 > 100 µM

CC(C)CC(CNC(Cc1ccc(Cl)cc1)C(N)=O)NC(=O)C(Cc1c[nH]cn1)NC(=O)CNC(=O)C(NC(=O)C(C)NC(=O)C(Cc1c[nH]c2ccccc12)NC(=O)C(CCC(=O)O)NC(=O)C(N)Cc1ccccc1)C(C)C (stereo not drawn)
inactive: XF498 > 133 µM | LXFL 529 > 133 µM | M19-MEL > 133 µM | RXF 631 > 133 µM | KM-20L2 > 133 µM

O=c1c2cccnc2ncn1CCCN1CCOCC1
inactive: XF498 > 100 µM | LXFL 529 > 100 µM | M19-MEL > 100 µM | KM-20L2 > 100 µM
